In patent publication US10662409B2, “Methods of generating neural stem cells” (Trustees of Tufts College, priority 2015, dated 2020):

How the values were obtained:
Format in all cases: cell-based, human
[1] = test system: GABA receptors; experiment: Electrophysiology of 1-week hiNSC cultures, functionality of GABA receptors; settings: hiNSCs cultured for one week
Experimental: hiNSCs were grown on poly-L-lysine coated coverslips (Corning) in neurobasal media supplemented with 2% B27 (Invitrogen), 1% Glutamax, and 1% antibiotic-antimycotic for 1-8 weeks. Recordings were performed at 34° C. For whole-cell patch clamp experiments, pipettes contained saline (in mM): 130 K-gluconate, 10 KCl, 0.1 CaCl2, 2 Mg-ATP, 1.1 EGTA, and 10 HEPES, pH 7.4 KOH. Bath saline contained the following (in mM): 140 NaCl, 2.5 KCl, 2.5 CaCl2, 1.2 MgCl2, 10 HEPES, and 11 glucose, pH 7.4 NaOH.
To determine the functionality of GABA receptors, 1-week hiNSC cultures were assessed via known electrophsysiology methods (e.g., voltage ramp) in order to determine the response of neurons resulting from provided hiNSCs both in the presence of muscimol and in its absence.

[2] = test system: hiNSCs; experiment: Differentiation of dissociated hiNSCs with retinoic acid added to basal media (immunostaining); settings: retinoic acid 10-100 μM
Experimental: (§1) To encourage spontaneous differentiation, hiNSC colonies were enzymatically removed from MEF feeder layers using TrypLE (Invitrogen), then dissociated as much as possible by manually pipetting. This cell suspension was sometimes further separated into a single cell suspension using a […] cell strainer to remove larger clumps. Dissociated hiNSCs were plated and cultured on multiple substrates including CELLstart (Invitrogen), laminin (Roche) or gelatin in hiNSC basal media without bFGF or in neurobasal media supplemented with 2% B27 (Invitrogen), 1% Glutamax, and 1% antibiotic-antimycotic. hiNSC cells began to show differentiation into BIII-tubulin (TUJ1)-positive immature neurons with visible neurite extensions in as little as 4 days. After two weeks in basal media, hiNSC cells spontaneously differentiated into more mature neuronal and glial subtypes. Adding various amounts of retinoic acid (10-100 μM) caused cells to differentiate into more mature neuronal phenotypes in a shorter amount of time (˜8 days). […] For guided differentiation, Shh (500 ng/ml, Peprotech), FGF8 (500 ng/ml, Peprotech), and RA (R&D) at concentrations between 10-100 μM were used to facilitate neuronal and glial differentiation within shorter culture periods (˜7-8 days). For differentiation studies in undefined media, DMEM supplemented with 10% FBS and 1% antibiotic-antimycotic was used. […]

[3] = test system: inhibitory GABA receptors; experiment: Live Fluo-4AM calcium imaging of hiNSC cultures; settings: two-week cultures; 200 μM picrotoxin just before imaging
Experimental: Cells plated onto coverslips or on 3D scaffolds were immersed in extracellular solution (NaCl 140 mM, KCl 2.8 mM, CaCl2 2 mM, MgCl2 2 mM, HEPES 10 mM, glucose 10 mM, pH=7.4, adjusted with NaOH). Fluo-4 (Invitrogen) calcium sensitive dye was mixed 1:1 with 20% Pluronic F127 (Invitrogen). Next, Fluo-4 was diluted to a final concentration of 1 μM in the extracellular buffer and pre-warmed to 37° C. The Fluo-4 1 μM solution was applied to cells and incubated at 37° C. for 1 hour. Upon incubation, cells were washed with the extracellular buffer to remove any unreacted dye. Cells were imaged using Olympus MVX10 macroscope (12.6× magnification) and Hamamatsu ORCA-Flash4.0 camera. The images were taken with the following setup: 15 ms exposure, 60 ms frame frequency, 512×512 pixel, 4×4 binning, […] over 3 minutes at room temperature. Some samples were treated with 200 μM picrotoxin (Sigma-Aldrich) just before imaging. The movie was created using ImageJ software (NIH).

[4] = test system: hiNSCs; experiment: Guided differentiation of hiNSCs into neuronal subtypes with growth factors in Neurobasal media (HB9 / TH immunostaining); settings: added to Neurobasal media; one week in culture; FGF8 500 ng/ml, Shh 500 ng/ml
Experimental: as §1

## NCc1cc(=O)[nH]o1 [muscimol]
[1]
  membrane potential response of hiNSCs to GABA agonist: depolarizing response

## CC1=C(/C=C/C(C)=C/C=C/C(C)=C/C(=O)O)C(C)(C)CCC1 [retinoic acid]
[2]
  time to differentiate into more mature neuronal phenotypes: ~8 days

## picrotoxin
[3]
  spontaneous calcium signaling in response to GABA receptor blocker: significantly activated

B1: FGF8: fibroblast growth factor 8 (Peprotech) added to culture media (protein, UniProt P55075 23-233, looked up)
Fibroblast growth factor 8: QEGPGRGPALGRELASLFRAGREPQGVSQQHVREQSLVTDQLSRRLIRTYQLYSRTSGKHVQVLANKRINAMAEDGDPFAKLIVETDTFGSRVRVRGAETGLYICMNKKGKLIAKSNGKGKDCVFTEIVLENNYTALQNAKYEGWYMAFTRKGRPRKGSKTRQHQREVHFMKRLPRGHHTTEQSLRFEFLNYPPFTRSLRGSQRTWAPEPR
[4]
  staining of tyrosine hydroxylase (TH, marker of dopaminergic neurons): increase
